Data from PMC6098685 (Journal of the American Chemical Society, 2018).
pIC50: −log10 of the molar value.

Key:
[1] = target: T1, β-Glucocerebrosidase (GCase) (Homo sapiens, UniProt P04062); assay: 4MU-β-Glc fluorescence enzyme assay; type: biochemical
T1 sequence (P04062 40-536): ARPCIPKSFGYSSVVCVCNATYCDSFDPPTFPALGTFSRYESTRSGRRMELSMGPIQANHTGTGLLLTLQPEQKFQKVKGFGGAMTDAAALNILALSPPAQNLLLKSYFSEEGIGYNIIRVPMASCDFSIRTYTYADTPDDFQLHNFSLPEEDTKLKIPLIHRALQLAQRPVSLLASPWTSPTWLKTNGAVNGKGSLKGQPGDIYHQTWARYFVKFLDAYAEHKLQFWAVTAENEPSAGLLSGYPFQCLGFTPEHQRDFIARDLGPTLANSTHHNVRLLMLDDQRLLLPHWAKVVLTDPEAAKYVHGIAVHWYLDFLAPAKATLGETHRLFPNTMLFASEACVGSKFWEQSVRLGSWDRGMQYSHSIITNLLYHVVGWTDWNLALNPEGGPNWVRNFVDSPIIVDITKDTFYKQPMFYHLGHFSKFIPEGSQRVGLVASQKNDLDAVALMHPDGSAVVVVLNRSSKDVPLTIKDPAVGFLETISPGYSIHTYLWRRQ

[2] = target: T1, β-Glucocerebrosidase (GCase); assay: X-ray crystal structure; type: biochemical

SMILES	pIC50 [1]	pIC50 [2]
c1cncc(-c2nc(NC3Cc4ccccc4C3)c3ccccc3n2)c1 [compound 3, JZ-4109]	8.10	
O=C(CCCCCCCCC#Cc1ccc2c(c1)CC(Nc1nc(-c3cccnc3)nc3ccccc13)C2)ON1C(=O)CCC1=O (centres unmarked) [compound 4, JZ-5029]		7.25
